From US10857150B2, “Use of sanglifehrin macrocyclic analogues as anticancer compounds” (NEUROVIVE PHARMACEUTICAL AB, priority 2016, dated 2020)

Assays:
Hep3B2.1-7-Luc = assay: 7-day proliferation assay, Calcein AM staining; assay type: cell-based, human
Description: (§1) The cells were seeded in a 96-well plate, test compound or DMSO was added and the plate was incubated for additional four days or 7 days (Calcein AM assay). Viable cell counts were determined after detachment by treatment with trypsin either by trypan blue exclusion, flow cytometry, indirectly by measuring ATP content by addition of an ATP measuring reagent (CellTiter Glo), or Calcein AM, prepared according to the instruction of the manufacturer directly.
(§2) XLfit software ((Fit model: Dose response one site/^F(x)[fit=(A+((B−A)/(1+((C/x)^D))))]) for curve fitting and IC50 calculation) was used for curve fitting and IC50 calculation.
(§3) In vitro evaluation of a sanglifehrin macrocyclic analogue (1) for anticancer activity against human hepatocyte cancer cell lines in comparison with NV556 (10) a 7-day proliferation assay. The cell numbers were determined by Calcein AM staining as described in the methods section. Data are from one experiment with each cell line testing duplicate samples of 9 concentrations of each compound. Both compounds were included in each experiment.
(§4) In vitro evaluation of a sanglifehrin macrocyclic analogue (1) for anticancer activity against human hepatocyte cancer cell lines in comparison with the cyclophilin inhibitor alisporivir and the kinase inhibitor sorafenib in a 7-day proliferation assay. The cell numbers were determined by Calcein AM staining as described in the methods section. Data are from one single experiment or means of two independent experiments testing duplicate samples of 9 concentrations of each compound. All three compounds were included in each experiment.

LIXC-006 = assay: 7-day proliferation assay, Calcein AM staining; assay type: cell-based, human
Description: as §1, §2, §3, §4

LIXC-066 = assay: 7-day proliferation assay, Calcein AM staining; assay type: cell-based, human
Description: as §1, §2, §3, §4

LIXC-086 = assay: 7-day proliferation assay, Calcein AM staining; assay type: cell-based, human
Description: as §1, §2, §3, §4

HepG2 [1] = assay: 7-day proliferation assay, Calcein AM staining; assay type: cell-based; conditions: Homo sapiens, 168 h, Example 6, n 2
Description: as §1, §2, §4

LIXC-003 = assay: 7-day proliferation assay, Calcein AM staining; assay type: cell-based; conditions: Homo sapiens, 168 h, Example 6, n 2
Description: as §1, §2, §4

LIXC-004 = assay: 7-day proliferation assay, Calcein AM staining; assay type: cell-based; conditions: Homo sapiens, 168 h, Example 6, n 2
Description: as §1, §2, §4

LIXC-011 = assay: 7-day proliferation assay, Calcein AM staining; assay type: cell-based; conditions: Homo sapiens, 168 h, Example 6, n 1
Description: as §1, §2, §4

LIXC-012 = assay: 7-day proliferation assay, Calcein AM staining; assay type: cell-based; conditions: Homo sapiens, 168 h, Example 6, n 2
Description: as §1, §2, §4

LIXC-002 = assay: 7-day proliferation assay, Calcein AM staining; assay type: cell-based, human; conditions: Example 5, one experiment
Description: as §1, §2, §3

HepG2 [2] = assay: combination with sorafenib, 7-day proliferation assay (Calcein AM), isobologram; assay type: cell-based, human; conditions: combination with sorafenib at different doses
Description: as §1
To test for potential synergistic activity with sorafenib, compound 1 (A) was added at a range of concentrations along with a range of concentrations of sorafenib (B) against a liver cancer cell line, HepG2 in a 7-day proliferation assay (Calcein AM assay, described in the methods section). Data are from one single experiment representative of two independent experiments testing duplicate samples. The data was plotted in a normalized isobologram (Chou and Martin. CompuSyn for Drug Combinations: PC Software and User's Guide: A Computer Program for Quantitation of Synergism and Antagonism in Drug Combinations, and the Determination of IC50 and ED50 and LD50 Values, ComboSyn Inc, Paramus, (NJ), 2005) and is shown in FIG. 7. Values at the lower left below the hypotenuse indicate synergism.

[3] = system: human hepatocyte cancer cell lines; assay: 7-day proliferation assay, comparison of potency over the cell lines; assay type: cell-based
Description: as §1, §3, §4

A2780 = assay: monolayer proliferation assay, human tumour cell line panel; assay type: cell-based; conditions: means of two experiments, 3 nM-25 μM
Description: as §1
(§5) Percentage inhibition in the ATP test was calculated by the formula described below: Growth inhibition %: 100−100×(Experimental−Blank)/(DMSO−Blank)
as §2
(§6) In vitro evaluation of compounds for anticancer activity in a panel of human tumour cell lines in a monolayer proliferation assay were carried out at Shanghai Chempartner.
(§7) In vitro evaluation of a sanglifehrin macrocyclic analogue (NV556) for anticancer activity in a panel of 11 human tumour cell lines in a monolayer proliferation assay was carried out as described in the general methods above. Data are means from two independent experiments testing 10 concentrations (3 nM-25 μM) in duplicate.

A375 = assay: as above; assay type: cell-based; conditions: means of two experiments, 10 concentrations 3 nM-25 μM
Description: as §1, §5, §2, §6, §7

A549 = assay: as above; assay type: cell-based; conditions: means of two experiments, 3 nM-25 μM
Description: as §1, §5, §2, §6, §7

HCT 116 = assay: as above; assay type: cell-based; conditions: means of two experiments, 3 nM-25 μM
Description: as §1, §5, §2, §6, §7

HT-29 = assay: as above; assay type: cell-based; conditions: means of two experiments, 3 nM-25 μM
Description: as §1, §5, §2, §6, §7

HepG2 [4] = assay: as above; assay type: cell-based; conditions: means of two experiments, 3 nM-25 μM
Description: as §1, §5, §2, §6, §7

Huh-7 = assay: as above; assay type: cell-based; conditions: means of two experiments, 3 nM-25 μM
Description: as §1, §5, §2, §6, §7

MDA-MB-231 = assay: as above; assay type: cell-based; conditions: means of two experiments, 3 nM-25 μM
Description: as §1, §5, §2, §6, §7

PANC-1 = assay: as above; assay type: cell-based; conditions: means of two experiments, 3 nM-25 μM
Description: as §1, §5, §2, §6, §7

PC-3 = assay: as above; assay type: cell-based; conditions: means of two experiments, 3 nM-25 μM
Description: as §1, §5, §2, §6, §7

RPMI 8226 = assay: as above; assay type: cell-based; conditions: means of two experiments, 3 nM-25 μM
Description: as §1, §5, §2, §6, §7

SK-Hep-1 = assay: as above; assay type: cell-based; conditions: means of two experiments, 3 nM-25 μM
Description: as §1, §5, §2, §6, §7

U251 = assay: as above; assay type: cell-based; conditions: means of two experiments, 3 nM-25 μM
Description: as §1, §5, §2, §6, §7

[5] = system: SK-Hep-1 tumour cell line; assay: combined anticancer activity, monolayer proliferation assay; assay type: cell-based, human; conditions: over certain concentration ranges
Description: as §1
In vitro evaluation of the combined anticancer activity of a sanglifehrin macrocyclic analogue with the anticancer agents sorafenib or doxorubicin against the SK-Hep-1 tumour cell line in a monolayer proliferation assay was carried out as described in the general methods above.

cyclophilin A (CyPA) = cyclophilin A (CyPA) (Homo sapiens, UniProt P62937); conditions: cited from earlier work
[6] = system: cancer cell lines Huh7, HepG2 and OEM; conditions: three cancer cell lines Huh7, HepG2 and OEM; WO2011/098805; cited from earlier work
[7] = Homo sapiens, 168 h, Example 6, n 1
[8] = Homo sapiens, 168 h, Example 6, n 2
[9] = Homo sapiens, 168 h, Example 5, one experiment
[10] = read-out: Concentration giving 50% of maximum effect

cyclophilin A (CyPA), sequence (P62937 whole entry, species assumed): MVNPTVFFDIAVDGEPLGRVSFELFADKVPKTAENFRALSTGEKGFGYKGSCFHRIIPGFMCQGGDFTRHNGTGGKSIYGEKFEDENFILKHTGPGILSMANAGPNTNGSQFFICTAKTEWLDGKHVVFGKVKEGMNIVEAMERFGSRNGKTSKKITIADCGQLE

C/C=C/C[C@@H](C)[C@@H](O)[C@H]1C(=O)N[C@@H](CC)C(=O)N(C)[C@H](C)C(=O)N(CC)[C@@H](C(C)C)C(=O)N[C@@H](C(C)C)C(=O)N(C)[C@@H](CC(C)C)C(=O)N[C@@H](C)C(=O)N[C@H](C)C(=O)N(C)[C@@H](CC(C)C)C(=O)N(C)[C@@H](CC(C)C)C(=O)N(C)[C@@H](C(C)C)C(=O)N1C [Alisporivir, alisporivir]
IC50 (Hep3B2.1-7-Luc; [7]): 2880 nM
IC50 (LIXC-006; [8]): 993 nM
IC50 (LIXC-066; [7]): 1640 nM
IC50 (LIXC-086; [7]): 2250 nM
IC50 (HepG2 [1]): 3130 nM
IC50 (LIXC-003): 4730 nM
IC50 (LIXC-004): 3810 nM
IC50 (LIXC-011): 8710 nM
IC50 (LIXC-012): 3220 nM

CC(=O)CC[C@H]1C(=O)N[C@@H](C(C)C)C(=O)N[C@@H](Cc2cc(O)cc(F)c2)C(=O)N2CCCC(N2)C(=O)O[C@H](/C(C)=C/C=C/C(=O)OC(C)(C)C)C/C=C/C=C/[C@H](O)[C@H](C)[C@H]1O (some centres unmarked) [Compound 1]
IC50 (Hep3B2.1-7-Luc; [9]): 11 nM
IC50 (Hep3B2.1-7-Luc; [7]): 9 nM
IC50 (LIXC-006; [9]): 9 nM
IC50 (LIXC-006; [8]): 6 nM
IC50 (LIXC-066; [9]): 93 nM
IC50 (LIXC-066; [7]): 169 nM
IC50 (LIXC-086; [9]): 905 nM
IC50 (LIXC-086; [7]): 686 nM
IC50 (LIXC-002; Homo sapiens, 168 h): < 3 nM
IC50 (HepG2 [1]): 7 nM
IC50 (LIXC-003): 8 nM
IC50 (LIXC-004): 4 nM
IC50 (LIXC-011): 12 nM
IC50 (LIXC-012): 65 nM
growth inhibitory effect of simultaneous treatment (HepG2 [2]): synergistic growth inhibitory effect
potency relative to NV556 (10) ([3]; Example 5, all cases (5 cell lines)): 3-10 fold
potency relative to alisporivir ([3]; Example 6, all cases (9 cell lines)): 3-1000 fold
potency relative to sorafenib ([3]; Example 6, in 8/9 cases): 3-600 fold

CC(=O)CCC1C(=O)NC(C(C)C)C(=O)NC(Cc2cc(O)cc(F)c2)C(=O)N2CCCC(N2)C(=O)OC(C(C)=CC=CC(=O)N2CCCCO2)CC=CC=CC(O)C(C)C1O (centres unmarked) [NV556]
Maximum inhibition (%) (A2780): 83.7%
EC50 (A2780; [10]): 100 nM
Maximum inhibition (%) (A375): 87.6%
EC50 (A375; [10]): 2100 nM
Maximum inhibition (%) (A549): 45.2%
EC50 (A549; [10]): 100 nM
Maximum inhibition (%) (HCT 116): 88.7%
EC50 (HCT 116; [10]): 100 nM
Maximum inhibition (%) (HT-29): 56.8%
Maximum inhibition (%) (HepG2 [4]): 80.6%
EC50 (HepG2 [4]; [10]): 100 nM
Maximum inhibition (%) (Huh-7): 22.4%
EC50 (Huh-7; [10]): 30 nM
Maximum inhibition (%) (MDA-MB-231): 49.9%
EC50 (MDA-MB-231; [10]): 500 nM
Maximum inhibition (%) (PANC-1): 51.0%
EC50 (PANC-1; [10]): 1300 nM
Maximum inhibition (%) (PC-3): 45.3%
EC50 (PC-3; [10]): 300 nM
Maximum inhibition (%) (RPMI 8226): 87.1%
EC50 (RPMI 8226; [10]): 200 nM
Maximum inhibition (%) (SK-Hep-1): 94.6%
EC50 (SK-Hep-1; [10]): 100 nM
Maximum inhibition (%) (U251): 62.0%
EC50 (U251; [10]): 16900 nM
IC50 (Hep3B2.1-7-Luc; Example 5, one experiment): 54 nM
IC50 (LIXC-006; Example 5, one experiment): 62 nM
IC50 (LIXC-066; Example 5, one experiment): 244 nM
IC50 (LIXC-086; Example 5, one experiment): 9490 nM
IC50 (LIXC-002): 39 nM
reduction in cell numbers, combination versus single compounds ([5]; combination with doxorubicin): stronger reduction in cell numbers than either compound alone
reduction in cell numbers, combination versus single compounds ([5]; combination with sorafenib): stronger reduction in cell numbers than either compound alone

CC[C@H]1C[C@H](C)[C@@]2(NC1=O)O[C@@H](C[C@H](O)[C@@H](C)CC/C=C/C=C(\C)[C@@H]1C/C=C/C=C/[C@H](O)[C@H](C)[C@@H](O)[C@@H](CCC(C)=O)C(=O)N[C@@H](C(C)C)C(=O)N[C@@H](Cc3cccc(O)c3)C(=O)N3CCC[C@H](N3)C(=O)O1)[C@H](C)[C@H](O)[C@@H]2C [SfA, Sanglifehrin A]
affinity for CyPA compared to CsA (cyclophilin A (CyPA); higher affinity): approximately 20 fold

CNC(=O)c1cc(Oc2ccc(NC(=O)Nc3ccc(Cl)c(C(F)(F)F)c3)cc2)ccn1 [Sorafenib, sorafenib]
IC50 (LIXC-006; [8]): 3960 nM
IC50 (HepG2 [1]): 2960 nM
IC50 (LIXC-003): 4 nM
IC50 (LIXC-004): 2190 nM
IC50 (LIXC-011): 538 nM
IC50 (LIXC-012): 1150 nM

CC(=O)CCC1C(=O)NC(C(C)C)C(=O)NC(Cc2cccc(O)c2)C(=O)N2CCCC(N2)C(=O)OC(C(C)=CC=CC(=O)OC(C)(C)C)CC=CC=CC(O)C(C)C1O (centres unmarked) [compound 9]
effect on cancer cell lines [6]: limited effect

CC(=O)CCC1C(=O)NC(C(C)C)C(=O)NC(Cc2cccc(O)c2)C(=O)N2CCCC(N2)C(=O)OC(C(C)=CCO)CC=CC=CC(O)C(C)C1O (centres unmarked) [hydroxymacrocycle]
affinity for CyPA (cyclophilin A (CyPA); Sedrani et al., 2003): strong affinity
